# Assay results taken from publication PMC11316111, “Mechanism of allosteric inhibition of human p97/VCP ATPase and its disease mutant by triazole inhibitors” (Communications Chemistry, 2024).
# Read-outs that look alike come from different tables or passages of the source.
# How the values were obtained:
# p97^P510S = target: T1, p97^P510S (Homo sapiens, UniProt P55072, P510S); assay: p97 ATPase activity (Biomol Green), P510S mutant; assay type: biochemical
# T1 construct: made in house
# Experimental: (§1) Results were calculated from 6 replicates using GraphPad Prism 7.0 (GraphPad Software, Boston, MA).
# wild-type p97 (p97^WT) [1] = target: T2, wild-type p97 (p97^WT) (Homo sapiens, UniProt P55072); assay: p97 ATPase activity (Biomol Green), wild-type p97; assay type: biochemical
# T2 construct: made in house
# Experimental: as §1
# p97^F618S = target: T3, p97^F618S (Homo sapiens, UniProt P55072, F618S); assay: p97 ATPase activity (Biomol Green), F618S mutant; assay type: biochemical
# T3 construct: made in house
# Experimental: as §1
# p97^K512N = target: T4, p97^K512N (Homo sapiens, UniProt P55072, K512N); assay: p97 ATPase activity (Biomol Green), K512N mutant; assay type: biochemical
# T4 construct: made in house
# Experimental: as §1
# HCT116 p97WT = assay: HCT116 proliferation assay (CellTiter Glo); assay type: cell-based; conditions: Table S3, cellular viability, four replicates, read-out: IC50 HCT116 p97WT
# Experimental: (§2) Anti-proliferative activity was measured using CellTiter Glo® Luminescent Cell Viability Assay (Promega G7572) according to the manufacturer’s procedure as described. RMPI1640 containing 5% FBS and 1% penicillin-streptomycin was used as a cell viability medium. A standard curve of HCT116 was generated for finding the linear relationship between the relative luminescence unit and the number of viable cells. […] 24 h after seeding, 8 μL of media containing 5% DMSO was added to each well, and the plate was incubated for an additional 48 h. To test the anti-proliferative activity of p97 inhibitors, we seeded HCT116 at 750 cells per well according to the linear range. […] After 48 h of treatment, cell viability was measured by adding CellTiter Glo reagent and reading the signal with a BioTek Synergy Neo plate reader (Agilent, Santa Clara, CA). The IC50 values were calculated from four replicates using the percentage of growth of treated cells versus the DMSO control. The results were analyzed using GraphPad Prism 7.0 (GraphPad, Boston, MA).
# p97^N616F = target: T5, p97^N616F (Homo sapiens, UniProt P55072, N616F); assay: p97 ATPase activity (Biomol Green), N616F mutant; assay type: biochemical
# T5 construct: made in house
# Experimental: as §1
# p97^R155H = target: T6, p97^R155H (Homo sapiens, UniProt P55072, R155H); assay: p97 ATPase activity (Biomol Green), R155H mutant; assay type: biochemical
# T6 construct: enabling us to acquire high-resolution biomolecular structures of full-length p97; made in house
# Experimental: as §1
# [2] = test system: Ub^G76V-GFP/ODD-Luc HeLa cells; assay: Cellular Ub^G76V-GFP accumulation assay; assay type: cell-based; conditions: Table S3, four replicates, read-out: UbG76V-GFP EC50
# Experimental: ImageXpress high-content confocal microscope (Molecular Devices, LLC., San Jose, CA) was used to image cells at GFP channel. The percentage of Ub^G76V-GFP accumulation (%Acc) is calculated using the following formula: […]
# The IC50 values were calculated by fitting the %Acc from four replicates with various concentrations of compounds using GraphPad Prism 7.0 (GraphPad, Boston, MA).
# HCT116 p97P510S = assay: Cellular viability, resistant HCT116 p97P510S; assay type: cell-based
# Experimental: (§3) Drug-resistant HCT116 cell lines were derived using the method previously described and with certain modifications[70],[99]. […] Drug-resistant clones were transferred into a new plate for passaging, and subsequently used to study drug resistance and identify the p97 mutations.
# as §2
# HCT116 p97F618S = assay: Cellular viability, resistant HCT116 p97F618S; assay type: cell-based; conditions: Table S3, four replicates
# Experimental: as §3, §2
# HCT116 p97K512N = assay: Cellular viability, resistant HCT116 p97K512N; assay type: cell-based; conditions: Table S3, four replicates
# Experimental: as §3, §2
# wild-type p97 (p97^WT) [3] = target: T2, wild-type p97 (p97^WT); design: method as in PMID 26822609; conditions: read-out: IC50 (p97 ATPase); cited from earlier work
# T5 sequence (P55072 whole entry N616F): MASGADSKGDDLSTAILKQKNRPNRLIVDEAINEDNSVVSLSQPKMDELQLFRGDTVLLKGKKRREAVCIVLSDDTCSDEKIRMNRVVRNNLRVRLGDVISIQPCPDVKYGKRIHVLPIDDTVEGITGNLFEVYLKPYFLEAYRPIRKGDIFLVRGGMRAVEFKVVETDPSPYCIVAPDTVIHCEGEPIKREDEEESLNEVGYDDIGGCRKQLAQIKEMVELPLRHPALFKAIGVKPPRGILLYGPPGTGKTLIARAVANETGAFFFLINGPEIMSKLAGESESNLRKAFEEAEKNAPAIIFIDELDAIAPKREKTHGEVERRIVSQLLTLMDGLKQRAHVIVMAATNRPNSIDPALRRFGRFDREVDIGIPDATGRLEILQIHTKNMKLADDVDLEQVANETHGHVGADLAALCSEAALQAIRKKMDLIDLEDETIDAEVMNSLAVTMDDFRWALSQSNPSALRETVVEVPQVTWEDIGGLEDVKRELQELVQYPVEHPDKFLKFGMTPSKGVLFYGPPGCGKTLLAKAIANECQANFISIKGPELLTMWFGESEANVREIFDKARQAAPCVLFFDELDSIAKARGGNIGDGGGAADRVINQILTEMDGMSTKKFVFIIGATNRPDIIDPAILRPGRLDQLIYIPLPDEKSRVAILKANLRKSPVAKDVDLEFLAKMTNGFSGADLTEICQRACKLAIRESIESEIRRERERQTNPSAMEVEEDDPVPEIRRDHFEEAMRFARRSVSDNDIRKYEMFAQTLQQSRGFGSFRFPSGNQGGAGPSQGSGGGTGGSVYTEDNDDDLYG
# T4 sequence (P55072 whole entry K512N): as the sequence (P55072 whole entry N616F) above, with K512N, F616N counted along it
# T1 sequence (P55072 whole entry P510S): as the sequence (P55072 whole entry N616F) above, with P510S, F616N counted along it
# T2 sequence (P55072 whole entry): as the sequence (P55072 whole entry N616F) above, with F616N counted along it
# T6 sequence (P55072 whole entry R155H): as the sequence (P55072 whole entry N616F) above, with R155H, F616N counted along it
# T3 sequence (P55072 whole entry F618S): as the sequence (P55072 whole entry N616F) above, with F616N, F618S counted along it
smiles,measurement,setting,value
CCC(=O)NCC#Cc1cc(F)c(OCc2nnc(S[C@H]3C=CCCC3)n2-c2cccnc2)cc1F [NSC804515],"increase of IC50 versus p97^WT, P510S",p97^P510S,more than 30 fold
same,IC50,"p97^P510S; 200 μM ATP, six replicates",2320 nM
same,"Ratio of IC50 values for mutants to IC50 values for wild-type p97, P510S",p97^P510S; P510S/WT,155
same,IC50,"wild-type p97 (p97^WT) [1]; 200 μM ATP, six replicates",15 nM
same,"Ratio of IC50 values for mutants to IC50 values for wild-type p97, WT",wild-type p97 (p97^WT) [1]; WT/WT reference,1
same,% ATPase activity,wild-type p97 (p97^WT) [1]; inhibitor 0.000905 µM,99%
same,% ATPase activity,wild-type p97 (p97^WT) [1]; inhibitor 0.002716 µM,92%
same,% ATPase activity,wild-type p97 (p97^WT) [1]; inhibitor 0.008148 µM,72%
same,% ATPase activity,wild-type p97 (p97^WT) [1]; inhibitor 0.024444 µM,32%
same,% ATPase activity,wild-type p97 (p97^WT) [1]; inhibitor 0.073333 µM,16%
same,% ATPase activity,wild-type p97 (p97^WT) [1]; inhibitor 0.220000 µM,12%
same,"increase of IC50 versus p97^WT, F618S",p97^F618S,more than 30 fold
same,IC50,"p97^F618S; 200 μM ATP, six replicates",1750 nM
same,"increase of IC50 versus p97^WT, K512N",p97^K512N,12 fold
same,IC50,"p97^K512N; 200 μM ATP, six replicates",180 nM
same,"Ratio of IC50 values for mutants to IC50 values for wild-type p97, K512N",p97^K512N; K512N/WT,12
same,IC50,"HCT116 p97WT; Homo sapiens, HCT-116",750 nM
same,"increase of IC50 versus p97^WT, N616F",p97^N616F,more than 30 fold
same,IC50,"p97^N616F; 200 μM ATP, six replicates",> 6600 nM
same,"Ratio of IC50 values for mutants to IC50 values for wild-type p97, N616F",p97^N616F; N616F/WT,> 440
same,IC50,"p97^R155H; 200 μM ATP, six replicates",14 nM
same,"Ratio of IC50 values for mutants to IC50 values for wild-type p97, R155H",p97^R155H; R155H/WT,0.9
same,EC50,"[2]; Homo sapiens, HeLa",870 nM
"Cc1cc(OCc2nnc(SC3CCCC3)n2-c2cccnc2)ccc1-c1ccc(S(C)(=O)=O)cc1 [NMS-873, reference compound]",IC50,"HCT116 p97P510S; Homo sapiens, HCT-116, Table S3, four replicates",9200 nM
same,% ATPase activity,wild-type p97 (p97^WT) [1]; inhibitor 0.000905 µM,106%
same,% ATPase activity,wild-type p97 (p97^WT) [1]; inhibitor 0.002716 µM,98%
same,% ATPase activity,wild-type p97 (p97^WT) [1]; inhibitor 0.008148 µM,88%
same,% ATPase activity,wild-type p97 (p97^WT) [1]; inhibitor 0.024444 µM,55%
same,% ATPase activity,wild-type p97 (p97^WT) [1]; inhibitor 0.073333 µM,28%
same,% ATPase activity,wild-type p97 (p97^WT) [1]; inhibitor 0.220000 µM,14%
same,IC50,"HCT116 p97WT; Homo sapiens, HCT-116",2000 nM
same,EC50,"[2]; Homo sapiens, HeLa",2000 nM
CC1CCCC(C)N1CCOc1cc([N+](=O)[O-])ccc1C#N (centres unmarked) [UPCDC30733],IC50,"HCT116 p97P510S; Table S3, four replicates",9600 nM
same,IC50,HCT116 p97F618S,21000 nM
same,IC50,HCT116 p97K512N,25000 nM
same,IC50,HCT116 p97WT,680 nM
same,EC50,[2],530 nM
CC(C)N1CCN(CCNC2CCN(c3cccc(-c4cc5cc(F)ccc5[nH]4)c3)CC2)CC1 [UPCDC30245],IC50,wild-type p97 (p97^WT) [3],27 nM
